Measured values: US12673936B2, “Isoindolinone compounds, and uses thereof” (HANGZHOU GLUBIO PHARMACEUTICAL CO., LTD., priority 2021, dated 2026)

Key:
HiBiT tagged GSPT1 = HiBiT tagged GSPT1 (Homo sapiens, UniProt P15170+Q96SW2); test: GSPT1 degradation assay (HiBiT assay); type: cell-based; settings: for Dmax: HT-1080, HT-1080 cells; for Dmax / HiBiT GSPT1: Dmax: 20 hours, maximum GSPT1 degradation
Description: (§1) CK1α and GSPT1 Degradation Assay (HiBiT Assay) The following is an example of an assay that can be used to determine the dose-dependent CK1α and GSPT1 degradation activities of test compounds in a human cell line such as HT-1080 ([…]). HT-1080 cells stably overexpressing wild-type CRBN, GSPT1A(1-138)/G575N mutant and HiBiT tagged CK1α or GSPT1 were seeded into 384-well plates (Cat #3764, Corning) pre-spotted with DMSO or test compounds. Increasing concentrations of test compounds (ranging from 3.162×10^-4 μM to 10 μM at a 3.16-fold increment) or DMSO were dispensed into an empty 384-well plate using an Echo Acoustic Liquid Handler (Beckman Coulter). About 10,000 cells in complete DMEM cell culture media were seeded per well. […] Luminescence was then measured with an EnVision plate reader (PerkinElmer) or a PHERAstar plate reader (BMG Labtech). All CK1α or GSPT1 degradation curves were processed using Collaborative Drug Discovery Vault softwares (Burlingame, CA., www.collaborativedrug.com). CK1α or GSPT1 levels in compound-treated wells were normalized to that of DMSO control and expressed as Percent of Control (PoC, y). […]

HiBiT tagged CK1α = HiBiT tagged CK1α (Homo sapiens, UniProt P48729+Q96SW2); test: CK1α degradation assay (HiBiT assay); type: cell-based; settings: 20 hours; for Dmax: HT-1080, HT-1080 cells; for Dmax / HiBiT CK1α: Dmax: maximum CK1α degradation; for DC50 / HiBiT CK1α: Dmax: HT-1080 cells; for DC50: concentration at 50% CK1α degradation
Chain of HiBiT tagged CK1α (P48729 whole entry): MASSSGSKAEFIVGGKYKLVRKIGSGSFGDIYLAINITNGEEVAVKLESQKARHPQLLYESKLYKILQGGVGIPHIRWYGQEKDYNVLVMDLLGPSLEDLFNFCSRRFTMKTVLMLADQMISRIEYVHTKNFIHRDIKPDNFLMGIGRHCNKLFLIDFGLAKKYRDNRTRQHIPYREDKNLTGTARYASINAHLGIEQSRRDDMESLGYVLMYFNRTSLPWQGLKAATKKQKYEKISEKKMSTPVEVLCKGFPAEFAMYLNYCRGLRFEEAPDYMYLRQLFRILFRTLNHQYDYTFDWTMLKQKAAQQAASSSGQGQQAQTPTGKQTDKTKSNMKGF
Chain of HiBiT tagged CK1α (Q96SW2 whole entry): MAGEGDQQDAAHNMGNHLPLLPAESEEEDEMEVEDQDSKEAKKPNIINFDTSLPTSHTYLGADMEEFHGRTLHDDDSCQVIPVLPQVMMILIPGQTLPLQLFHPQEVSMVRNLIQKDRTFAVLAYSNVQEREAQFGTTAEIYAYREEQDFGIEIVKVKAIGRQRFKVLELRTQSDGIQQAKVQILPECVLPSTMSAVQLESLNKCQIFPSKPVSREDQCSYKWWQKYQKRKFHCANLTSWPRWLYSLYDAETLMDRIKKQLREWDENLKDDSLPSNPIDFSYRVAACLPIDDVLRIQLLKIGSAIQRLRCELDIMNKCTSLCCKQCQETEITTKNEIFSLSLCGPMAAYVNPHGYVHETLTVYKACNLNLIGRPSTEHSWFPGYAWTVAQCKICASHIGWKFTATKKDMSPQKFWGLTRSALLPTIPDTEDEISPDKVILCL
Chain of HiBiT tagged CK1α (Q16531 whole entry partner): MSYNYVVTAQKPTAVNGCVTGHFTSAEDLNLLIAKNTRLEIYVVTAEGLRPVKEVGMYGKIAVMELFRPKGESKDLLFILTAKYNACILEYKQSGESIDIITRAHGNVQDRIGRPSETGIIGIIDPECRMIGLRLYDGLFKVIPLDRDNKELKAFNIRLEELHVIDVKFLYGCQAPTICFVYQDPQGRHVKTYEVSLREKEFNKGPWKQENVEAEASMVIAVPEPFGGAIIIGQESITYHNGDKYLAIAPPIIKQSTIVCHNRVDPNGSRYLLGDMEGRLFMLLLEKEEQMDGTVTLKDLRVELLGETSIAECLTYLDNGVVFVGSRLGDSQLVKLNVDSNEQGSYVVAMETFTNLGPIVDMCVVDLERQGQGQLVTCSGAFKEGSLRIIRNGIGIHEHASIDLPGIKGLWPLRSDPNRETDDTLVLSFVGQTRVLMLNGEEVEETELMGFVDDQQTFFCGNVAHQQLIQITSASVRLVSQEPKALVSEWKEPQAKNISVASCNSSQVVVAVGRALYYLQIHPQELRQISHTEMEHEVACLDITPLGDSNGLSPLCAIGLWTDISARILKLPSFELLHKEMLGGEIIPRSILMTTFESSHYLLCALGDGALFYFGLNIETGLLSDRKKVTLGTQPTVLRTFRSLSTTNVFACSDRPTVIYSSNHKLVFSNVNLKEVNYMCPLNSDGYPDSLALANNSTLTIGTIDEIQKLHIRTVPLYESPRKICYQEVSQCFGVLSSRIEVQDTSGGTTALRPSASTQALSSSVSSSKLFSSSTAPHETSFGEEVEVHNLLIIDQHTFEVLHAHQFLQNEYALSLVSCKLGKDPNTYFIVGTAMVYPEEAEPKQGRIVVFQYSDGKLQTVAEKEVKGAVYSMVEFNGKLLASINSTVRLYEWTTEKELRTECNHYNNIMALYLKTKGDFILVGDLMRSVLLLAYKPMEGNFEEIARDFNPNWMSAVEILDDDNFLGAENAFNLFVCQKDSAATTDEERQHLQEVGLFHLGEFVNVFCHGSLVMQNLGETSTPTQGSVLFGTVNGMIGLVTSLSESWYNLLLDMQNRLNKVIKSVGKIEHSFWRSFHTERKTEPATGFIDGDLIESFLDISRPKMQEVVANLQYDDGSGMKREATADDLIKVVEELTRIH
Description: as §1

Chain of HiBiT tagged GSPT1 (P15170 whole entry): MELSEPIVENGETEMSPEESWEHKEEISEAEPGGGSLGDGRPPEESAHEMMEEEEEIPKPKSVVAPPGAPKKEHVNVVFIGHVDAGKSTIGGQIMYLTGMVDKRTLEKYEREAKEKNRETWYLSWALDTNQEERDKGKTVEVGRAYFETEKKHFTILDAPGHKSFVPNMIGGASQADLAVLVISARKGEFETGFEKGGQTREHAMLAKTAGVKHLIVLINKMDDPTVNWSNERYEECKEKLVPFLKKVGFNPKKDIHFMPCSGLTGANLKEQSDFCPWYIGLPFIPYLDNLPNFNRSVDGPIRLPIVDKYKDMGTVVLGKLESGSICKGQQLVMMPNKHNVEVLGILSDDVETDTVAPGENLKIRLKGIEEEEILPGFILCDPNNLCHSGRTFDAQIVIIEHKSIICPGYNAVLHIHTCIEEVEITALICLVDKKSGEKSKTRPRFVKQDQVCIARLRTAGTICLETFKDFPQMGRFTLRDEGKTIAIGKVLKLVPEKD
Chain of HiBiT tagged GSPT1 (Q96SW2 whole entry): as the sequence (Q96SW2 whole entry) above
Chain of HiBiT tagged GSPT1 (Q16531 whole entry partner): as the sequence (Q16531 whole entry partner) above

| Compound | Dmax (HiBiT tagged GSPT1) | Dmax (HiBiT tagged CK1α) | DC50 (HiBiT tagged CK1α) | HiBiT GSPT1: Dmax (HiBiT tagged GSPT1; HT-1080 cells) | HiBiT CK1α: Dmax (HiBiT tagged CK1α) | GSPT1 degradation (in words) (HiBiT tagged GSPT1; HT-1080 cells) |
| --- | --- | --- | --- | --- | --- | --- |
| O=C1CCC(N2Cc3cc(C(=O)N[C@H](c4c(F)cccc4F)C4CCC4)ccc3C2=O)C(=O)N1 (stereo in doubt) [Compound 67, N-((*S)-cyclobutyl(2,6-difluorophenyl)methyl)-2-(2,6-dioxopiperidin-3-yl)-1-oxoisoindoline-5-carboxamide] | 31.7% | 76.4% | 40 nM | – | – | – |
| O=C1CCC(N2Cc3cc(C(=O)N[C@@H](c4cccc(Cl)c4)C4CCC4)ccc3C2=O)C(=O)N1 (stereo in doubt) [Compound 68, N-((3-chlorophenyl)(cyclobutyl)methyl)-2-(2,6-dioxopiperidin-3-yl)-1-oxoisoindoline-5-carboxamide] | 48.3% | 55.4% | 789 nM | – | – | – |
| O=C1CCC(N2Cc3cc(C(=O)N[C@H](c4c(F)cccc4Cl)C4CCC4)ccc3C2=O)C(=O)N1 (stereo in doubt) [Compound 69, N-((*S)-(2-chloro-6-fluorophenyl)(cyclobutyl)methyl)-2-(2,6-dioxopiperidin-3-yl)-1-oxoisoindoline-5-carboxamide] | – | – | 62.7 nM | 26% | 74% | – |
| O=C1CCC(N2Cc3cc(C(=O)N[C@@H](c4c(F)cccc4Cl)C4CCC4)ccc3C2=O)C(=O)N1 (stereo in doubt) [Compound 70, N-((*R)-(2-chloro-6-fluorophenyl)(cyclobutyl)methyl)-2-(2,6-dioxopiperidin-3-yl)-1-oxoisoindoline-5-carboxamide] | – | – | 50.3 nM | 58% | 73.9% | – |
| O=C1CCC(N2Cc3cc(C(=O)N[C@H](c4ncc(F)cc4Cl)C4CC4)ccc3C2=O)C(=O)N1 (stereo in doubt) [Compound 71, N-((*S)-(3-chloro-5-fluoropyridin-2-yl)(cyclopropyl)methyl)-2-(2,6-dioxopiperidin-3-yl)-1-oxoisoindoline-5-carboxamide] | 19.1% | 61.7% | 455 nM | – | – | – |
| O=C1CCC(N2Cc3cc(C(=O)N[C@@H](c4ccc(F)cc4Cl)C4CCC4)ccc3C2=O)C(=O)N1 (stereo in doubt) [Compound 72, N-((*R)-(2-chloro-4-fluorophenyl)(cyclobutyl)methyl)-2-(2,6-dioxopiperidin-3-yl)-1-oxoisoindoline-5-carboxamide] | 45.2% | 65.5% | 132 nM | – | – | – |
| Cc1ccc(NC(=O)NCc2ccc3c(c2)CN(C2CCC(=O)NC2=O)C3=O)cc1Cl (stereo not drawn) [CC-885, reference compound] | 92.5% | 53.7% | 653 nM | – | – | effectively degraded GSPT1 |
| O=C1CCC(N2Cc3cc(C(=O)NC(c4ccc(F)cc4F)C4CC4)ccc3C2=O)C(=O)N1 (stereo not drawn) [Compound 1, N-(cyclopropyl(2,4-difluorophenyl)methyl)-2-(2,6-dioxopiperidin-3-yl)-1-oxoisoindoline-5-carboxamide] | 37% | 66.2% | 221 nM | – | – | – |
| O=C1CCC(N2Cc3cc(C(=O)NC(c4ccc(Cl)cc4F)C4CC4)ccc3C2=O)C(=O)N1 (stereo not drawn) [Compound 14, N-((4-chloro-2-fluorophenyl)(cyclopropyl)methyl)-2-(2,6-dioxopiperidin-3-yl)-1-xoisoindoline-5-carboxamide] | 45.5% | 67.1% | 284 nM | – | – | – |
| COc1ccccc1C(NC(=O)c1ccc2c(c1)CN(C1CCC(=O)NC1=O)C2=O)C1CC1 (stereo not drawn) [Compound 15, N-(cyclopropyl(2-methoxyphenyl)methyl)-2-(2,6-dioxopiperidin-3-yl)-1-oxoisoindoline-5-carboxamide] | 24.5% | 73.2% | 66.6 nM | – | – | – |
| O=C1CCC(N2Cc3cc(C(=O)NC(c4ncccc4Cl)C4CC4)ccc3C2=O)C(=O)N1 (stereo not drawn) [Compound 16, N-((3-chloropyridin-2-yl)(cyclopropyl)methyl)-2-(2,6-dioxopiperidin-3-yl)-1-oxoisoindoline-5-carboxamide] | 44.9% | 62.2% | 303 nM | – | – | – |
| O=C1CCC(N2Cc3cc(C(=O)NC(c4ccc(F)cc4Cl)C4CCC4)ccc3C2=O)C(=O)N1 (stereo not drawn) [Compound 19, N-((2-chloro-4-fluorophenyl)(cyclobutyl)methyl)-2-(2,6-dioxopiperidin-3-yl)-1-oxoisoindoline-5-carboxamide] | 43% | 69.6% | 65.9 nM | – | – | – |
| O=C1CCC(N2Cc3cc(C(=O)NC(c4c(F)cccc4F)C4CCC4)ccc3C2=O)C(=O)N1 (stereo not drawn) [Compound 22, N-(cyclobutyl(2,6-difluorophenyl)methyl)-2-(2,6-dioxopiperidin-3-yl)-1-oxoisoindoline-5-carboxamide] | 48.3% | 70.7% | 79.7 nM | – | – | – |

Continued, values first:

| Dmax (HiBiT tagged GSPT1) | Dmax (HiBiT tagged CK1α) | DC50 (HiBiT tagged CK1α) | HiBiT GSPT1: Dmax (HiBiT tagged GSPT1; HT-1080 cells) | HiBiT CK1α: Dmax (HiBiT tagged CK1α) | GSPT1 degradation (in words) (HiBiT tagged GSPT1; HT-1080 cells) | Compound |
| --- | --- | --- | --- | --- | --- | --- |
| 30.4% | 71.4% | 73.5 nM | – | – | – | O=C1CCC(N2Cc3cc(C(=O)N[C@H](c4ccc(F)cc4Cl)C4CCC4)ccc3C2=O)C(=O)N1 (stereo in doubt) [Compound 73, N-((*S)-(2-chloro-4-fluorophenyl)(cyclobutyl)methyl)-2-(2,6-dioxopiperidin-3-yl)-1-oxoisoindoline-5-carboxamide] |
| 62.3% | 59.2% | 233 nM | – | – | – | O=C1CCC(N2Cc3cc(C(=O)N[C@@H](c4ccc(F)cc4Cl)C4CC4)ccc3C2=O)C(=O)N1 (stereo in doubt) [Compound 74, N-((*R)-(2-chloro-4-fluorophenyl)(cyclopropyl)methyl)-2-(2,6-dioxopiperidin-3-yl)-1-oxoisoindoline-5-carboxamide] |
| 24.1% | 50.4% | 3880 nM | – | – | – | O=C1CCC(N2Cc3cc(C(=O)N[C@@H](c4ccc(F)cc4)C4CCC4)ccc3C2=O)C(=O)N1 (stereo in doubt) [Compound 75, N-((*R)-cyclobutyl(4-fluorophenyl)methyl)-2-(2,6-dioxopiperidin-3-yl)-1-oxoisoindoline-5-carboxamide] |
| – | – | – | 23.5% | 41.1% | – | O=C1CCC(N2Cc3cc(C(=O)N[C@@H](c4ccc(Cl)cn4)C4CCC4)ccc3C2=O)C(=O)N1 (stereo in doubt) [Compound 77, N—((*R)-(5-chloropyridin-2-yl)(cyclobutyl)methyl)-2-(2,6-dioxopiperidin-3-yl)-1-oxoisoindoline-5-carboxamide] |
| 14.2% | 61.1% | 652 nM | – | – | – | O=C1CCC(N2Cc3cc(C(=O)N[C@H](c4ncc(Cl)cc4F)C4CCC4)ccc3C2=O)C(=O)N1 (stereo in doubt) [Compound 80, N-((*S)-(5-chloro-3-fluoropyridin-2-yl)(cyclobutyl)methyl)-2-(2,6-dioxopiperidin-3-yl)-1-oxoisoindoline-5-carboxamide] |
| 18.4% | 62.1% | 153 nM | – | – | – | O=C1CCC(N2Cc3cc(C(=O)N[C@H](c4ncc(F)cc4Cl)C4CCC4)ccc3C2=O)C(=O)N1 (stereo in doubt) [Compound 81, N-((*S)-(3-chloro-5-fluoropyridin-2-yl)(cyclobutyl)methyl)-2-(2,6-dioxopiperidin-3-yl)-1-oxoisoindoline-5-carboxamide] |
| 14.9% | 55.4% | 394 nM | – | – | – | O=C1CCC(N2Cc3cc(C(=O)N[C@H](c4ncccc4F)C4(F)CCC4)ccc3C2=O)C(=O)N1 (stereo in doubt) [Compound 88, 2-(2,6-dioxopiperidin-3-yl)-N-((*R)-(1-fluorocyclobutyl)(3-fluoropyridin-2-yl)methyl)-1-oxoisoindoline-5-carboxamide] |
